# Target: T1, TLR2/MD-2 interaction (Mus musculus, UniProt Q9QUN7)
# T1 construct: endogenous in cells; host or cells: RAW264.7
# Assay: TLR2/MD-2 co-immunoprecipitation (negative control) in LPS-treated RAW264.7 cells
# Format: cell-based
# Details: 1.0 μM; LPS 1 μg/ml; 24 hrs post-treatment
# Experimental: Co-Immunoprecipitation Assay RAW264.7 cells [treated with LPS (1 μg/ml), 3α,5α-THP (1 μM) or pregnenolone (1 μM)] were exposed to chemical protein crosslinking (Poulopoulos et al, 2009) at 24 hrs post-treatment. Briefly, the cells were incubated (20 min on ice) with 1 mM of the cleavable, membrane-permeable crosslinker DSP (Thermo Fisher Scientific, Cat. #PG82081). Rat VTA homogenates were incubated (20 min on ice) with 200 μM of DSP. The crosslinker was quenched in 1 M Tris buffer (pH 7.5) (to a final concentration of 10-20 mM), and the material was centrifuged at 21,000×g for 15 min. Proteins from the cells were extracted with Pierce IP Lysis Buffer (Thermo Fisher Scientific, Cat. #87787) supplemented with protease and phosphatase inhibitor cocktails (Sigma). Proteins from the VTA were extracted with CelLytic MT (dialyzable mild detergent, bicine and 150 mM NaCl; Sigma Aldrich, St. Louis, Mo., USA, Cat. #C3228) supplemented with protease and phosphatase inhibitor cocktails (Sigma) according to the manufacturers instructions. […]
# T1 sequence (Q9QUN7 25-784): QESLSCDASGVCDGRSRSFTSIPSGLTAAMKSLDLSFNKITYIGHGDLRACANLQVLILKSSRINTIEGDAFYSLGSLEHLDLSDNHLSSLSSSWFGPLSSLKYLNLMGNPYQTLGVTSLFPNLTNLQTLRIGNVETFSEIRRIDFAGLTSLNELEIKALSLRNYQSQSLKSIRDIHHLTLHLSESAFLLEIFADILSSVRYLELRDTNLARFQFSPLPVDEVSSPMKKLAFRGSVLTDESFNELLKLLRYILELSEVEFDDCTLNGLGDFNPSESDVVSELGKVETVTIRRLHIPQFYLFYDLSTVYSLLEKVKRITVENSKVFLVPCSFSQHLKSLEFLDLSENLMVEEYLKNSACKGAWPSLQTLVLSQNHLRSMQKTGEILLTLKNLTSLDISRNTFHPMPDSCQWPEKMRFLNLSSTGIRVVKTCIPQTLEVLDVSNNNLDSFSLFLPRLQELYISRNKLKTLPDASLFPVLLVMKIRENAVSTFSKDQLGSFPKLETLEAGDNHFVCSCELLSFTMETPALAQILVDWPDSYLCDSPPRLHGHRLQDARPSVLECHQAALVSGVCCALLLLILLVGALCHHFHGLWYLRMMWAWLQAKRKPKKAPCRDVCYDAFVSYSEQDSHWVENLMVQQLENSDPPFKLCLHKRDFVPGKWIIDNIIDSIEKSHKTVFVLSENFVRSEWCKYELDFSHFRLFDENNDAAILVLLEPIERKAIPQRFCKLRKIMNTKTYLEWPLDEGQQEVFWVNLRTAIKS
row,SMILES,TLR2/MD-2 co-immunoprecipitation
1,"CC(=O)[C@H]1CC[C@H]2[C@@H]3CC[C@H]4C[C@H](O)CC[C@]4(C)[C@H]3CC[C@]12C [3α,5α-THP, (3α,5α)3-hydroxypregnan-20-one]",not altered
2,CC(=O)[C@H]1CC[C@H]2[C@@H]3CC=C4C[C@@H](O)CC[C@]4(C)[C@H]3CC[C@]12C [pregnenolone],not altered
